Active and inactive are the calls of the source.
Tests used:
[1] = inhibitors of Vif binding to APOBEC3G peptide, primary screen, biochemical, TR-FRET, GST-Vif 1-94, biotin-A3G peptide, dose response retest (AID 1117319); type: functional;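 further: TR-FRET signal of purified GST-Vif binding a biotinylated A3G peptide; inhibitors lower the FRET signal by blocking Vif and A3G binding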
[2] = biological target: Luciferin 4-monooxygenase (Photinus pyralis, UniProt P08659); assay: firefly luciferase enzyme inhibitors, dose response, biochemical, luminescence (AID 1891)
Luciferin 4-monooxygenase, sequence (P08659 whole entry): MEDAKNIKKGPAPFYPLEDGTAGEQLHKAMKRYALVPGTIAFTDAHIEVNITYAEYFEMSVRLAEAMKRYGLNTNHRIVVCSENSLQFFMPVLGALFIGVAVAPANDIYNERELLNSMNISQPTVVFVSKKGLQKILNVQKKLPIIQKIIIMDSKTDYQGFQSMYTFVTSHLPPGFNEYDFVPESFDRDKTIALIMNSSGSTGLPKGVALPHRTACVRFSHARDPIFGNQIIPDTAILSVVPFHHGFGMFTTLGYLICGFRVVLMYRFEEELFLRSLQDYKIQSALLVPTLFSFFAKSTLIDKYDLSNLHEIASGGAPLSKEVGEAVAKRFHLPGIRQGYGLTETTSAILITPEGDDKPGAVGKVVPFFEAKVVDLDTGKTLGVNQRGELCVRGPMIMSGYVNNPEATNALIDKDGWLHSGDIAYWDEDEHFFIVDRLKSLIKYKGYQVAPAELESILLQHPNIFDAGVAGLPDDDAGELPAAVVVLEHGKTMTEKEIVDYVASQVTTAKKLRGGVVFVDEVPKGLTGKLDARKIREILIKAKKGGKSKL

[3] = Luminescence Cell-Based Dose Confirmation HTS to Identify Inhibitors of Platelet Dense Granule Release. [Related pubchem assays: 1663 (Primary HTS), 1678 (Summary of Project)]; type: functional
[4] = Fluorescence Cell-Based Dose Response to Identify Inhibitors of Thrombin Receptor-Activating Peptide SFLLRN-Mediated P-Selectin Induction on Platelets. [Related pubchem assays: 1663 (Primary HTS), 1889 (retest at dose ), 1891 (counterscreen), 1678 (Project Summary)]; type: functional
[5] = biological target: Cytochrome P450 2C9 (Homo sapiens, UniProt P11712)
Cytochrome P450 2C9, sequence (P11712 whole entry): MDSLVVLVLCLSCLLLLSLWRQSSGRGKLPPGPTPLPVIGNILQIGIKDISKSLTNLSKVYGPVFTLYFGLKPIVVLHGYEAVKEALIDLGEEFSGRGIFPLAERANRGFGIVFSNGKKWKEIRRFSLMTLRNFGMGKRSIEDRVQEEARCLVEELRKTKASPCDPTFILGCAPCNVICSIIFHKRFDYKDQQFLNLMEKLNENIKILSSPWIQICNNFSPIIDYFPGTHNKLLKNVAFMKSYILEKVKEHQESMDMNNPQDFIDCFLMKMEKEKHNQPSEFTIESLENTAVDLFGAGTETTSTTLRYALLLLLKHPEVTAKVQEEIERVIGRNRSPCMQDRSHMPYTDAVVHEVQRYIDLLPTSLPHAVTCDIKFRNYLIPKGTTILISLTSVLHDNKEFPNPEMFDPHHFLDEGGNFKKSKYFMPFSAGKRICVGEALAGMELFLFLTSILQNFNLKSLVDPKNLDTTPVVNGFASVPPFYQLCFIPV

[6] = C. albicans growth with fluconazole, confirmation, fluorescence, retest (AID 2467); type: functional, cell-based
[7] = NIH-3T3 fibroblast cytotoxicity, dose response, cytotoxicity control, cell-based, fluorescence, Alamar Blue, secondary assay (AID 2327); type: functional;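 further: NIH-3T3 mouse fibroblasts cultured with fluconazole at 8 µg/mL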
[8] = biological target: T1, Cytochrome P450 1A2 (Homo sapiens, UniProt P05177);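 further: PubChem cytochrome P450 panel assay, CYP1A2 panel member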
T1 sequence (P05177 whole entry): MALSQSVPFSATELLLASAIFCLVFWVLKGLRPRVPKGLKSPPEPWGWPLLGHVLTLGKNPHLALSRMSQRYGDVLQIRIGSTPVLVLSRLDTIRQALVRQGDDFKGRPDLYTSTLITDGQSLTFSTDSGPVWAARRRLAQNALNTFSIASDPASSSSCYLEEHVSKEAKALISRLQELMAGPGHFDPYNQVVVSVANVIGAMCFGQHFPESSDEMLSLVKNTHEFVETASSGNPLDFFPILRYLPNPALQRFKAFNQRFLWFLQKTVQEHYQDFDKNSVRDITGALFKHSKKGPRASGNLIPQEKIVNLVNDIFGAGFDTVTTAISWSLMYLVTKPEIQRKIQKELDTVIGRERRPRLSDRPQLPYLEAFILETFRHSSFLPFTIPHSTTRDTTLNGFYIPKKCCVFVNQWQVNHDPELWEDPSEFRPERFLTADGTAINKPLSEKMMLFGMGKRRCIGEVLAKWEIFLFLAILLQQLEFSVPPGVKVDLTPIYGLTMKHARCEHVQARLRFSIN

[9] = biological target: Ephrin type-A receptor 4 (Mus musculus, UniProt Q03137); assay: inhibitors of EphA4 binding to KYL peptide, primary screen, biochemical, colorimetric, mouse EphA4 (AID 689); type: functional
Ephrin type-A receptor 4, sequence (Q03137 whole entry): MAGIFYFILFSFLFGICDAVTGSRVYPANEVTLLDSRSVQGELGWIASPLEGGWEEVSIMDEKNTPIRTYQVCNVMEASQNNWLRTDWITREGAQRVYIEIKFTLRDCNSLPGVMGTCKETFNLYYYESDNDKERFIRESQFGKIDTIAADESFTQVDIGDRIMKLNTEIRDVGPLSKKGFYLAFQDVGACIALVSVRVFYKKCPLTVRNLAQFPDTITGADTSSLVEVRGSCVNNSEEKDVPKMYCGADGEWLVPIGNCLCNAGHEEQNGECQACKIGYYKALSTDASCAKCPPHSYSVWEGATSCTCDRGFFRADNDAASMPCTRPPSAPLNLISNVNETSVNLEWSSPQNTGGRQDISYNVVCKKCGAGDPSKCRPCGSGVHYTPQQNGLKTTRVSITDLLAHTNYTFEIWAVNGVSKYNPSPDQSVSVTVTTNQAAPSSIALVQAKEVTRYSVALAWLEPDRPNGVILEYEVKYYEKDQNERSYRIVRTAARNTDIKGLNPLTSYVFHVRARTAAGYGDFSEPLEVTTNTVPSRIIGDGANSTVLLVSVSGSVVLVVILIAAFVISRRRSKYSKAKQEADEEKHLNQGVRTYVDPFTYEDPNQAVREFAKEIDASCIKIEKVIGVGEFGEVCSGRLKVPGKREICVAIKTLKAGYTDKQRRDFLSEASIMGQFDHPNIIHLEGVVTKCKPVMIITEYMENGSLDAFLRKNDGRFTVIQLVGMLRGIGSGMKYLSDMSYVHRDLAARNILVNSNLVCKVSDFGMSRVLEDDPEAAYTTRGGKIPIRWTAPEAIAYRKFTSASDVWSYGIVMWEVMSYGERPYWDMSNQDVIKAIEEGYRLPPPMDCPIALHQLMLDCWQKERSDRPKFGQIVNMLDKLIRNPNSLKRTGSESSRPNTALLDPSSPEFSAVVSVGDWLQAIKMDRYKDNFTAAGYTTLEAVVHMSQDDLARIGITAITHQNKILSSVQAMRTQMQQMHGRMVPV

[10] = biological target: Estrogen receptor (Homo sapiens, UniProt P03372);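 further: potency for inhibiting coactivator peptide recruitment to the receptor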
Estrogen receptor, sequence (P03372 whole entry): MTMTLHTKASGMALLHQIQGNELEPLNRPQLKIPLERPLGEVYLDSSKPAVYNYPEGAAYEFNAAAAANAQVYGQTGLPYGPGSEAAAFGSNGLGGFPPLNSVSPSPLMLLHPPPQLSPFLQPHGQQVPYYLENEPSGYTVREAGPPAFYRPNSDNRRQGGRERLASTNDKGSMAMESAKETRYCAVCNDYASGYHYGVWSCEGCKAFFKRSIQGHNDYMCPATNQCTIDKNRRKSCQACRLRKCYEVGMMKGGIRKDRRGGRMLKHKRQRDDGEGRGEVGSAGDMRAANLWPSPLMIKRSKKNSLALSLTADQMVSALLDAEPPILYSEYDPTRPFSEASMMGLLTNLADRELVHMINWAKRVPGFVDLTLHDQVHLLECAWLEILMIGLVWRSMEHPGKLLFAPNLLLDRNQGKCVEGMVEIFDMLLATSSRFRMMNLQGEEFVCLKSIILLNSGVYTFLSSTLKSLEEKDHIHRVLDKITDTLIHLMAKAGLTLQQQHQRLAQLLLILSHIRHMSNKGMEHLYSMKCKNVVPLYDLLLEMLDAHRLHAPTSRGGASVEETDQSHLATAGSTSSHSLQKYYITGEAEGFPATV

[11] = biological target: Genome polyprotein (Hepatitis C virus, UniProt Q2Q167); assay: HCV core protein dimerization inhibitors, dose response, biochemical, TR-FRET (AID 2159); design: species or system Hepacivirus hominis;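 further: blocks dimerization of HCV core protein measured by TR-FRET between tagged core106 pairs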
Genome polyprotein, sequence (Q2Q167 whole entry): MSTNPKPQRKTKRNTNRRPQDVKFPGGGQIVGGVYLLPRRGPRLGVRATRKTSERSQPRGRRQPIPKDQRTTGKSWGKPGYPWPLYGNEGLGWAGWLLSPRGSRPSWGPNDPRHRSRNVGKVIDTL

[12] = HEp-2 cell cytotoxicity, dose response, cytotoxicity control for RSV inhibitor project, HTS (AID 2410); type: functional; conditions: human respiratory syncytial virus
[13] = biological target: Diphosphomevalonate decarboxylase (Streptococcus pneumoniae serotype 2 (strain D39 / NCTC 7466), UniProt Q9FD53); assay: S. pneumoniae DPM-DC inhibition retest, confirmation, biochemical, cuvette format, coupled NADH fluorescence (AID 1028); type: functional
Diphosphomevalonate decarboxylase, sequence (Q9FD53 whole entry): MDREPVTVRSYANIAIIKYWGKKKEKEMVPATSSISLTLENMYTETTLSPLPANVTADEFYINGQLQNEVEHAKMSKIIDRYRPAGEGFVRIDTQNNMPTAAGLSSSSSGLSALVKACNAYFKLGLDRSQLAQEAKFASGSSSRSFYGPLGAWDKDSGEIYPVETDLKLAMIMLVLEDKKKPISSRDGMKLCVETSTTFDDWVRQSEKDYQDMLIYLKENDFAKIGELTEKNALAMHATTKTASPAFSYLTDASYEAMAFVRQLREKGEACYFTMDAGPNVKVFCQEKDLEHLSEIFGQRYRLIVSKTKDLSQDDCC

[14] = Glucagon-like peptide 1 release potency, NCI-H716 cell line, dose-response, half-maximal inhibitory concentration (AID 1117344); type: functional, cell-based
[15] = half-maximal inhibitory concentration for glucagon-like peptide-1 release, STC-1 cell line, dose-response (AID 1117345); type: functional, cell-based
[16] = biological target: Vasopressin V2 receptor (Homo sapiens, UniProt P30518); assay: Late-stage results from the probe development effort to identify antagonists of arginine vasopressin receptor 1a (AVPR1a): fluorescence-based cell-based dose response AVPR2 inhibition counterscreen assay.; type: functional
Vasopressin V2 receptor, sequence (P30518 whole entry): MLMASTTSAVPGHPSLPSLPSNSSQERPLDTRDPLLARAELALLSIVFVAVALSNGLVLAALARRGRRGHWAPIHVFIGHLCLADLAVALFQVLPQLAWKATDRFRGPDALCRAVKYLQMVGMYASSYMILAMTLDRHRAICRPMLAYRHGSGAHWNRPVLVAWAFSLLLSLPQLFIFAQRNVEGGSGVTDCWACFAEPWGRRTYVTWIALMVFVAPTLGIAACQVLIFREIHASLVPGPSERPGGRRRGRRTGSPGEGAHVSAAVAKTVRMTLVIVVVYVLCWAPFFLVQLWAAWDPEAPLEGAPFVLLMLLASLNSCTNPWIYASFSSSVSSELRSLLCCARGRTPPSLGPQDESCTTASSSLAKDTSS

[17] = Late-stage results from the probe development effort to identify antagonists of arginine vasopressin receptor 1a (AVPR1a): fluorescence-based cell-based dose response OXTR inhibition counterscreen assay.; type: functional
[18] = Late-stage results from the probe development effort to identify antagonists of arginine vasopressin receptor 1a (AVPR1a): fluorescence-based cell-based dose response AVPR1a inhibition assay.; type: functional
[19] = biological target: Vasopressin V1b receptor (Homo sapiens, UniProt P47901); assay: Late-stage results from the probe development effort to identify antagonists of arginine vasopressin receptor 1a (AVPR1a): fluorescence-based cell-based dose response AVPR1b inhibition counterscreen assay.; type: functional
Vasopressin V1b receptor, sequence (P47901 whole entry, canonical isoform): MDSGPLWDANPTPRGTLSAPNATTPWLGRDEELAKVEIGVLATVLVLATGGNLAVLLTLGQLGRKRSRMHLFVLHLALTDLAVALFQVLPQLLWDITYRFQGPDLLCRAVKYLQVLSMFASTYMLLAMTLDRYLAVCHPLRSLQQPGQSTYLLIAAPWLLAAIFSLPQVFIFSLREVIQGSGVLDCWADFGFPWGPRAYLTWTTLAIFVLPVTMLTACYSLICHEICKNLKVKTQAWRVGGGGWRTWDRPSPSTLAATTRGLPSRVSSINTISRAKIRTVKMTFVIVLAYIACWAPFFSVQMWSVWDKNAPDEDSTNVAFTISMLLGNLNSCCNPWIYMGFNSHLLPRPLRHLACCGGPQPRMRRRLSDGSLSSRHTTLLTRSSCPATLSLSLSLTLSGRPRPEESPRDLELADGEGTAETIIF

[20] = biological target: T2, Low molecular weight phosphotyrosine protein phosphatase (Homo sapiens, UniProt P24666); assay: LMPTP phosphatase inhibitors, colorimetric pNPP readout, dose response, orthogonal assay, biochemical, absorbance, pNPP substrate, LMPTP-A isoform, set 2 (AID 743308); type: functional
T2 sequence (P24666 whole entry): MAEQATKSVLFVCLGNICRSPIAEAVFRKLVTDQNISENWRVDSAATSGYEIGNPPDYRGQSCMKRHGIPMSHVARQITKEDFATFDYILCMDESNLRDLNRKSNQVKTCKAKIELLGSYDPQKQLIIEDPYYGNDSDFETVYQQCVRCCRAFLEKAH

[21] = biological target: T2, Low molecular weight phosphotyrosine protein phosphatase; assay: LMPTP phosphatase inhibitors, dose response, biochemical, OMFP substrate, fluorescence intensity, set 2 (AID 743307); type: functional
[22] = test system: P388/ADR; assay: cells; type: functional; conditions: Mus musculus
[23] = HeLa 4N DNA content increase, dose response, cell-based, IC50 (AID 1117351); type: functional
[24] = HeLa 2N DNA content increase, dose response, cell-based, IC50 (AID 1117349); type: functional
[25] = test system: P388; assay: cells; type: functional; conditions: Mus musculus
[26] = test system: SN12K1; assay: cells; type: functional; conditions: Homo sapiens
[27] = SNU-C1 cell viability reduction, dose response, CellTiter-Glo luminescence (AID 1117323); type: functional, cell-based

With `Cc1noc(C)c1C(=O)N1CCc2ccccc2C1` the IC50 [1] was > 100 µM (active).

With `COc1ccc(C(=O)Nc2ccc(N3CCOCC3)cc2)cc1OC` the EC50 [2] was 24.2 µM (active), the EC50 [3] was 1.95 µM (active) and the EC50 [4] was > 100 µM (not active).

In the case of `O=C(O)c1ccccc1C(=O)NNc1ccc(F)cc1`, the AC50 [5] is reported as 0.0251 µM (inconclusive), the EC50 [6] is reported as > 38 µM (not active) and the EC50 [7] is reported as 25.5 µM (active). The AC50 [8] was 20 µM (inconclusive) and the IC50 [9] was > 100 µM (not active).

For `CCn1c(SCC(=O)Nc2ccc3c(c2)c2ccccc2n3CC)nnc1-c1ccco1`, the IC50 [10] was > 50 µM (not active), the IC50 [11] was > 49.8 µM (not active) and the CC50 [12] was 48.9 µM (active).

For `CCN(CC)C(=O)c1cccc(-n2sc3ccccc3c2=O)c1`, the IC50 [13] was 16.7 µM (active).

For `CCCCCCCC/C=C\CCCCCCCCN`, the IC50 [14] was 14.8 µM (inactive) and the IC50 [15] was > 40 µM (inactive).

For `O=C(C1CCN(c2ccc(C(F)(F)F)cn2)CC1)N(CC1CC1)c1ccc(Cl)cc1`, the IC50 [16] was 19.3 µM (inactive), the IC50 [17] was 12.6 µM (inactive) and the IC50 [18] was 0.123 µM (active). For the same compound, the IC50 [19] was 31.7 µM (inactive).

For `c1ccc(-c2nc(N3CCSCC3)c3ccccc3n2)cc1`, the IC50 [20] was > 80 µM (inactive) and the IC50 [21] was > 80 µM (inactive).

In the case of `CN(Cc1cnc2nc(N)nc(N)c2n1)c1ccc(C(=O)N[C@@H](CCC(=O)O)C(=O)O)cc1` [METHOTREXATE], the GI50 [22] is reported as 0.025 µM (active), the IC50 [23] is reported as > 10 µM (inactive) and the IC50 [24] is reported as > 10 µM (inactive). For the same compound, the GI50 [25] was 0.025 µM (active), the GI50 [26] was 0.025 µM (active) and the IC50 [27] was > 20 µM (inactive).
